A short description of data set [1]: DPPH radical scavenging assay. The class given is biochemical. Particulars: 0.2 mM DPPH in ethanol, 30 minutes in dark at room temperature, absorbance at 517 nm; read-out: IC50 value against DPPH radicals. How it is done: DPPH is a stable free radical. When a free radical scavenger is present, light absorption of DPPH will be reduced when the single electron is scavenged, which allows to evaluate free radical scavenging ability of the substance and accordingly determine antioxidant ability thereof. The DPPH radical scavenging ability of the dihydrofuran chalcone was measured through the DPPH radical scavenging assay, so as to evaluate the antioxidant ability of the compound. The assay comprised the following steps: 1,1-Diphenyl-2-picrylhydrazyl (DPPH) was dissolved in absolute ethanol to obtain a solution with a concentration of 0.2 mM. The dihydrofuran chalcone was dissolved in absolute ethanol. 80 μL of the ethanol solution of dihydrofuran chalcone and 160 μL of the 0.2 mM DPPH ethanol solution were mixed and the mixture was placed in dark at room temperature for 30 minutes. Then, light absorbance at 517 nm was measured using a microplate reader (SpectraMax 190, Molecular Devices, USA), and Vc was employed as a positive control.

A short description of data set [2]: Solubility in methanol (structure identification). The class given is physicochemical.

As for `O=C1O[C@H]([C@@H](O)CO)C(O)=C1O` [Vc, vitamin C], the IC50 in data set [1] came to 100 µM. For `CC(C)(O)C1Cc2c(O)ccc(C(=O)/C=C/c3ccc(O)cc3O)c2O1` (centres unmarked) [compound 1, dihydrofuran chalcone], the solubility in methanol entry in data set [2] is listed as “easily soluble”.

What is called IC50 is the concentration needed to halve the response being measured.

The values are drawn from patent publication US11161829B1, “Dihydrofuran chalcone compound and preparation method thereof” (SOUTH CHINA BOTANICAL GARDEN, CHINESE ACADEMY OF SCIENCES, priority 2018, dated 2021).
